From patent publication US9457095B2, “Pharmaceutical compositions providing enhanced drug concentrations” (Bend Research, Inc., priority 1999, dated 2016) come the findings set out here.

What is called Cmax is the maximum level reached in the sampled fluid or tissue.

Holding throughout (assay type): physicochemical
Series [1] can be described thus: solubility of Drug 6 salt forms. The conditions noted are these: Drug 6 salts.
A short description of series [2]: microcentrifuge dissolution, sertraline lactate (Drug 2) with polymer. As for the experimental part: For these tests, 1.8 mg sertraline lactate was added to 0.9 mL HPLC water in each of six microcentrifuge tubes. For Control 4, 0.9 mL 2×PBS (PBS solution with 2 times the standard buffer salt concentration), adjusted to pH 8.0, was added to Tubes 1 and 2. For Example 10, 0.9 mL 2×PBS (pH 8.0) containing 3.6 mg of HPMCAS-MF was added to Tubes 3 and 4. For Example 11, 0.9 mL 2×PBS (pH 8.0) containing 3.6 mg of CAT was added to Tubes 5 and 6.
Dissolution performance was measured at 37° C. using the microcentrifuge method described in Example 1. Samples were taken after 4, 10, 20, 40, 90, and 180 minutes as described in Example 1. Samples were diluted in 35% H2O/65% ACN (vol./vol.), and analyzed by HPLC. The mobile phase was 35 vol. % 0.025 M triethylamine with 0.05M acetic acid in HPLC water in ACN. The analytical column used was a Phenomenex ODS 20, and the drug concentration was determined using diode array detection at 230 nm.

The nature of series [3]: microcentrifuge dissolution, ziprasidone mesylate (Drug 3) with polymer. Conditions: for [Drug 3]: PBS, 37° C. As for the experimental part:
Ziprasidone mesylate (Drug 3) is the soluble salt form of the antipsychotic drug ziprasidone. For these tests, 0.5 mg drug was added to each of 8 microcentrifuge tubes. For Control 5, no concentration-enhancing polymer was added to Tubes 1 and 2. For Example 12, 1.0 mg of CAT was added to Tubes 3 and 4. For Example 13, 1.0 mg of CAP (NF grade from Eastman Fine Chemical of Kingsport, Tenn.) was added to Tubes 5 and 6. For Example 14, 1.0 mg HPMCP (NF grade from Eastman Chemical Company) was added to Tubes 7 and 8.
Dissolution performance was measured at 37° C. using the microcentrifuge method described in Example 1. For each test, 0.616 mg of Drug 3 was added to the microcentrifuge tube. At time 0, 1.8 mL PBS was added to each of the tubes. Drug concentration was measured using HPLC, with a mobile phase of 60 vol. % 0.02 M KH2PO4, pH 3.0 in ACN, and diode array detection at 254 nm.

Series [4] is described as follows: solubility of sertraline forms. Conditions: for solubility: sertraline forms, pH 3, expressed as the free base.
A short description of series [5]: Cmax of Drug 1 forms in MFD solution. The conditions noted are these: pH 6.5 MFD solution.
Series [6] is described as follows: microcentrifuge dissolution, amorphous Drug 1 with varying ratios of HPMCAS-MF. The conditions noted are these: 15 mg amorphous Drug 1 in 1.5 mL PBS, 37° C. The method, then: Amorphous Drug 1 (15 mg) was added to microcentrifuge tubes containing 1.5 mL of PBS solution and varying concentrations of HPMCAS-MF. Dissolution performance was measured at 37° C. using the microcentrifuge method described in Example 1. Drug concentration was measured at 1.5 hours and at 20 hours for each polymer concentration.

Series [7] is described as follows: solubility of Drug 4 polymorphs in water. The conditions noted are these: Drug 4 mesylate polymorph.

In brackets after ≈: the same amount, converted by molar mass. Where a name gives a salt, the structure may show the parent alone.

Turning to “4-[3-[4-(2-methylimidazol-1-yl) phenylthio] phenyl]-3,4,5,6-tetrahydro-2H-pyran-4-carboxamide hemifumarate [Drug 6 hydrochloride salt]”, the solubility in series [1] (pH 4) is 0.37 mgA/mL; in series [1] (pH 7), 0.0009 mgA/mL.
Consider “4-[3-[4-(2-methylimidazol-1-yl) phenylthio] phenyl]-3,4,5,6-tetrahydro-2H-pyran-4-carboxamide hemifumarate [Drug 6]”, for which the solubility in series [1] (pH 4, listed as Drug 6 mesylate salt) came out at 3.7 mgA/mL; in series [1] (pH 7, listed as Drug 6 mesylate salt), 0.0042 mgA/mL.
Regarding `CN[C@H]1CC[C@@H](c2ccc(Cl)c(Cl)c2)c2ccccc21` [Control 4], the “[Drug 2]” value is 89 µg/mL in series [2] (10 mins); 72 µg/mL in series [2] (20 mins); 67 µg/mL in series [2] (40 mins); 63 µg/mL in series [2] (90 mins); 60 µg/mL in series [2] (180 mins); 101 µg/mL in series [2] (PBS (2x PBS pH 8.0 added), 37° C., 4 mins). Moreover, the AUC180 in series [2] (Drug 2 dissolution) is 11,700 min * μg/mL. In addition, in series [2] (Drug 2 dissolution), the Cmax was 101 µg/mL.
`CS(=O)(=O)O.O=C1Cc2cc(CCN3CCN(c4nsc5ccccc45)CC3)c(Cl)cc2N1` [Control 5] gave an AUC180 in series [3] (Drug 3 dissolution in PBS) of 1000 µg·min/mL. This compound also registered a maximum concentration (Cmax) in series [3] (Drug 3 dissolution in PBS) of 11 µg/mL. The “[Drug 3]” value in series [3] (10 mins) came to 3 µg/mL; in series [3] (20 mins), 11 µg/mL; in series [3] (40 mins) it was 6 µg/mL; in series [3] (90 mins) it was 7 µg/mL; in series [3] (180 mins) it was 1 µg/mL.
`CN[C@H]1CC[C@@H](c2ccc(Cl)c(Cl)c2)c2ccccc21` [Drug 2, sertraline lactate]: in series [4], the solubility amounted to 256000 µg/mL.
Consider `CN[C@H]1CC[C@@H](c2ccc(Cl)c(Cl)c2)c2ccccc21` [Drug 5, sertraline HCl], for which the solubility in series [4] (aqueous solution, aqueous buffer, read-out: solubility) turned out to be 3000 µg/mL. For the same compound, the solubility thermodynamic in series [4] (distilled water, aqueous buffer, thermodynamic from solid, sertraline hydrochloride with or without citric acid, pH 3, read-out: equilibrium solubility) stood at 3000 µg/mL.
Consider `O=C(N[C@@H](Cc1ccccc1)[C@@H](O)C(=O)N1C[C@@H](O)[C@@H](O)C1)c1cc2cc(Cl)ccc2[nH]1` [amorphous Drug 1, 5-chloro-1H-indole-2-carboxylic acid [(1 S)-benzyl-3-((3R, 4S)-dihydroxypyrroldin-1-yl-)-(2R)-hydroxy-3-oxypropyl] amide], for which the Cmax in series [5] (listed as amorphous form) was found to be 270 µg/mL. The “[Drug] 1.5 hr.” value in series [6] was determined as 224 µg/mL.
In series [5] (listed as crystalline form), `O=C(N[C@@H](Cc1ccccc1)[C@@H](O)C(=O)N1C[C@@H](O)[C@@H](O)C1)c1cc2cc(Cl)ccc2[nH]1` [crystalline Drug 1, 5-chloro-1H-indole-2-carboxylic acid [(1 S)-benzyl-3-((3R, 4S)-dihydroxypyrroldin-1-yl-)-(2R)-hydroxy-3-oxypropyl] amide] gave a Cmax of 160 µg/mL.
For `C#Cc1cccc(Nc2ncnc3cc(OCCOC)c(OCCOC)cc23)c1` [“A” form, [6,7-Bis(2-methoxy-ethoxy)-quinazolin-4-yl]-(3-ethynyl-phenyl)amine], the solubility in series [7] (read-out: solubility in water) was determined as 102 µg/mL (≈ 259 µM).
`C#Cc1cccc(Nc2ncnc3cc(OCCOC)c(OCCOC)cc23)c1` [“C” form, [6,7-Bis(2-methoxy-ethoxy)-quinazolin-4-yl]-(3-ethynyl-phenyl)amine]: the solubility in series [7] (read-out: solubility) was determined as 28 µg/mL (≈ 71.2 µM).
